Reference: ChEMBL document CHEMBL5370643, “Discovery of MK-1468: A Potent, Kinome-Selective, Brain-Penetrant Amidoisoquinoline LRRK2 Inhibitor for the Potential Treatment of Parkinson's Disease” (J Med Chem, 2023)
In brackets after ≈: the same amount, converted by molar mass.

Key:
[1] = Toxicity in Wistar-Han rat assessed as effect on spontaneous locomotor activity at 60 mg/kg, po administered as single dose and measured upto 24 hrs by telemetric analysis; format: organism-based; settings: in vivo
[2] = Intrinsic clearance in rhesus monkey at 3 mg/kg, iv measured after 24 hrs by LC-MS/MS analysis; format: ADME, organism-based, Macaca mulatta; settings: in vivo
[3] = Toxicity in Wistar-Han rat assessed as erosion of nonglandular stomach at 750 mg/kg, po administered once daily for 7 days; format: organism-based; settings: in vivo, 168 h, time 7 day
[4] = Total clearance in rhesus monkey at 3 mg/kg, iv measured after 24 hrs by LC-MS/MS analysis; format: ADME, organism-based, Macaca mulatta; settings: in vivo
[5] = Cardiotoxicity in iv dose guinea pig assessed as increase in QTc interval at high dose administered continuously for 20 min by ECG analysis; format: toxicity, organism-based, Cavia porcellus; settings: in vivo
[6] = Cardiotoxicity in guinea pig assessed as effect on heart rate at 5 to 20 mg/kg, iv administered continuously for 20 min by ECG analysis; format: toxicity, organism-based, Cavia porcellus; settings: in vivo, dose 5-20 mg/kg
[7] = AUC in Wistar-Han rat at 225 mg/kg, po administered once daily for 7 days; format: ADME, organism-based; set-up: time 7 day, dose 225 mg/kg, route po; settings: in vivo
[8] = Toxicity in Wistar-Han rat assessed as effect on body temperature at 60 mg/kg, po administered as single dose and measured upto 24 hrs by telemetric analysis; format: organism-based; settings: in vivo
[9] = Toxicity in Wistar-Han rat assessed as effect on spontaneous locomotor activity at 225 mg/kg, po administered as single dose and measured upto 24 hrs by telemetric analysis; format: organism-based; settings: in vivo
[10] = Toxicity in rhesus monkey assessed as clinical observation at 100 to 800 mg/kg, po administered once daily for 7 days; format: organism-based, Macaca mulatta; settings: in vivo, 168 h, dose 100-800 mg/kg, time 7 day
[11] = Cardiotoxicity in guinea pig assessed as effect on QRS interval at 5 to 20 mg/kg, iv administered continuously for 20 min by ECG analysis; format: toxicity, organism-based, Cavia porcellus; settings: in vivo, dose 5-20 mg/kg
[12] = Protein binding in human plasma incubated for 4 hrs by equilibrium dialysis method; format: ADME, cell-free; settings: read-out: PPB (converted)
[13] = Intrinsic clearance in Beagle dog at 0.5 mg/kg, iv measured after 24 hrs by LC-MS/MS analysis; format: ADME, organism-based, Canis lupus familiaris; settings: in vivo
[14] = In vivo inhibition of LRRK2 in rhesus monkey assessed as reduction in Ser935 phosphorylation in blood PBMC at 100 to 800 mg/kg, po administered once daily for 7 days; format: functional, Macaca mulatta; settings: dose 100-800 mg/kg, time 7 day
[15] = Toxicity in Wistar-Han rat assessed as effect on body temperature at 225 mg/kg, po administered as single dose and measured upto 24 hrs by telemetric analysis; format: organism-based; settings: in vivo
[16] = AUC in rhesus monkey at 800 mg/kg, po administered once daily for 7 days; format: ADME, organism-based, Macaca mulatta; set-up: time 7 day, dose 800 mg/kg, route po; settings: in vivo
[17] = MRT in rhesus monkey at 3 mg/kg, iv measured after 24 hrs by LC-MS/MS analysis; format: ADME, organism-based, Macaca mulatta; settings: in vivo
[18] = Mutagenicity in Salmonella typhimurium TA100 at 30 to 5000 ug/plate incubated for 48 hrs in presence of Wistar-Han rat S9 fraction by Ames test; format: toxicity, subcellular; settings: salmonella enterica subsp. enterica serovar typhimurium, s9, 48 h
[19] = Cardiotoxicity in guinea pig assessed as effect on PR interval at 5 to 20 mg/kg, iv administered continuously for 20 min by ECG analysis; format: toxicity, organism-based, Cavia porcellus; settings: in vivo, dose 5-20 mg/kg
[20] = Kinetic solubility of compound in PBS at pH 2 measured after 24 hrs by UPLC/DAD analysis; format: physicochemical; settings: read-out: Kinetic_solubility
[21] = Toxicity in Wistar-Han rat assessed as effect on heart rate at 60 mg/kg, po administered as single dose and measured upto 24 hrs by telemetric analysis; format: organism-based; settings: in vivo
rat Mdrl1 P-gp = assay: Efflux ratio of apparent permeability across basolateral to apical over apical to basolateral side in MDCK cells transfected with rat Mdrl1 P-gp incubated for 3 hrs by LC-MS/MS analysis; settings: dog, MDCK-MDR1
[22] = Toxicity in Wistar-Han rat assessed as histopathological change at 750 mg/kg, po administered once daily for 7 days; format: organism-based; settings: in vivo, 168 h, time 7 day
[23] = Toxicity in po dosed Wistar-Han rat assessed as NOAEL measured upto 24 hrs; format: organism-based; settings: in vivo, read-out: Activity
[24] = Toxicity in Wistar-Han rat assessed as effect on diastolic blood pressure at 60 mg/kg, po administered as single dose and measured upto 24 hrs by telemetric analysis; format: organism-based; settings: in vivo
[25] = Genotoxicity in CHO-WBL cells incubated for 3 to 24 hrs in presence or absence of rat liver S9 fraction by micronucleus assay; format: toxicity, Cricetulus griseus; settings: chinese hamster, time 3-24 hrs
[26] = Toxicity in Wistar-Han rat assessed as degeneration of seminiferous epithelium in testes at 750 mg/kg, po administered once daily for 7 days; format: organism-based; settings: in vivo, 168 h, time 7 day
[27] = Oral bioavailability in Beagle dog at 5 mg/kg measured after 24 hrs by LC-MS/MS analysis; format: ADME, organism-based, Canis lupus familiaris; settings: in vivo
[28] = AUC (0 to 24 hrs) in Wistar-Han rat at 48 mg administered twice a day by LC-MS/MS analysis; format: ADME; set-up: dose 48 mg; settings: in vivo
[29] = molecular target: Leucine-rich repeat serine/threonine-protein kinase 2 (Homo sapiens) (UniProt Q5S007); assay: Inhibition of LRRK2 in human PBMC using LRRKtide peptide as substrate assessed as Ser935 dephosphorylation preincubated with compound for 15 mins followed by substrate addition and measured after 90 mins in presence of ATP by TR-FRET assay; format: cell-based; settings: time 105.0 min
Sequence of Leucine-rich repeat serine/threonine-protein kinase 2 (Homo sapiens) (Q5S007 whole entry): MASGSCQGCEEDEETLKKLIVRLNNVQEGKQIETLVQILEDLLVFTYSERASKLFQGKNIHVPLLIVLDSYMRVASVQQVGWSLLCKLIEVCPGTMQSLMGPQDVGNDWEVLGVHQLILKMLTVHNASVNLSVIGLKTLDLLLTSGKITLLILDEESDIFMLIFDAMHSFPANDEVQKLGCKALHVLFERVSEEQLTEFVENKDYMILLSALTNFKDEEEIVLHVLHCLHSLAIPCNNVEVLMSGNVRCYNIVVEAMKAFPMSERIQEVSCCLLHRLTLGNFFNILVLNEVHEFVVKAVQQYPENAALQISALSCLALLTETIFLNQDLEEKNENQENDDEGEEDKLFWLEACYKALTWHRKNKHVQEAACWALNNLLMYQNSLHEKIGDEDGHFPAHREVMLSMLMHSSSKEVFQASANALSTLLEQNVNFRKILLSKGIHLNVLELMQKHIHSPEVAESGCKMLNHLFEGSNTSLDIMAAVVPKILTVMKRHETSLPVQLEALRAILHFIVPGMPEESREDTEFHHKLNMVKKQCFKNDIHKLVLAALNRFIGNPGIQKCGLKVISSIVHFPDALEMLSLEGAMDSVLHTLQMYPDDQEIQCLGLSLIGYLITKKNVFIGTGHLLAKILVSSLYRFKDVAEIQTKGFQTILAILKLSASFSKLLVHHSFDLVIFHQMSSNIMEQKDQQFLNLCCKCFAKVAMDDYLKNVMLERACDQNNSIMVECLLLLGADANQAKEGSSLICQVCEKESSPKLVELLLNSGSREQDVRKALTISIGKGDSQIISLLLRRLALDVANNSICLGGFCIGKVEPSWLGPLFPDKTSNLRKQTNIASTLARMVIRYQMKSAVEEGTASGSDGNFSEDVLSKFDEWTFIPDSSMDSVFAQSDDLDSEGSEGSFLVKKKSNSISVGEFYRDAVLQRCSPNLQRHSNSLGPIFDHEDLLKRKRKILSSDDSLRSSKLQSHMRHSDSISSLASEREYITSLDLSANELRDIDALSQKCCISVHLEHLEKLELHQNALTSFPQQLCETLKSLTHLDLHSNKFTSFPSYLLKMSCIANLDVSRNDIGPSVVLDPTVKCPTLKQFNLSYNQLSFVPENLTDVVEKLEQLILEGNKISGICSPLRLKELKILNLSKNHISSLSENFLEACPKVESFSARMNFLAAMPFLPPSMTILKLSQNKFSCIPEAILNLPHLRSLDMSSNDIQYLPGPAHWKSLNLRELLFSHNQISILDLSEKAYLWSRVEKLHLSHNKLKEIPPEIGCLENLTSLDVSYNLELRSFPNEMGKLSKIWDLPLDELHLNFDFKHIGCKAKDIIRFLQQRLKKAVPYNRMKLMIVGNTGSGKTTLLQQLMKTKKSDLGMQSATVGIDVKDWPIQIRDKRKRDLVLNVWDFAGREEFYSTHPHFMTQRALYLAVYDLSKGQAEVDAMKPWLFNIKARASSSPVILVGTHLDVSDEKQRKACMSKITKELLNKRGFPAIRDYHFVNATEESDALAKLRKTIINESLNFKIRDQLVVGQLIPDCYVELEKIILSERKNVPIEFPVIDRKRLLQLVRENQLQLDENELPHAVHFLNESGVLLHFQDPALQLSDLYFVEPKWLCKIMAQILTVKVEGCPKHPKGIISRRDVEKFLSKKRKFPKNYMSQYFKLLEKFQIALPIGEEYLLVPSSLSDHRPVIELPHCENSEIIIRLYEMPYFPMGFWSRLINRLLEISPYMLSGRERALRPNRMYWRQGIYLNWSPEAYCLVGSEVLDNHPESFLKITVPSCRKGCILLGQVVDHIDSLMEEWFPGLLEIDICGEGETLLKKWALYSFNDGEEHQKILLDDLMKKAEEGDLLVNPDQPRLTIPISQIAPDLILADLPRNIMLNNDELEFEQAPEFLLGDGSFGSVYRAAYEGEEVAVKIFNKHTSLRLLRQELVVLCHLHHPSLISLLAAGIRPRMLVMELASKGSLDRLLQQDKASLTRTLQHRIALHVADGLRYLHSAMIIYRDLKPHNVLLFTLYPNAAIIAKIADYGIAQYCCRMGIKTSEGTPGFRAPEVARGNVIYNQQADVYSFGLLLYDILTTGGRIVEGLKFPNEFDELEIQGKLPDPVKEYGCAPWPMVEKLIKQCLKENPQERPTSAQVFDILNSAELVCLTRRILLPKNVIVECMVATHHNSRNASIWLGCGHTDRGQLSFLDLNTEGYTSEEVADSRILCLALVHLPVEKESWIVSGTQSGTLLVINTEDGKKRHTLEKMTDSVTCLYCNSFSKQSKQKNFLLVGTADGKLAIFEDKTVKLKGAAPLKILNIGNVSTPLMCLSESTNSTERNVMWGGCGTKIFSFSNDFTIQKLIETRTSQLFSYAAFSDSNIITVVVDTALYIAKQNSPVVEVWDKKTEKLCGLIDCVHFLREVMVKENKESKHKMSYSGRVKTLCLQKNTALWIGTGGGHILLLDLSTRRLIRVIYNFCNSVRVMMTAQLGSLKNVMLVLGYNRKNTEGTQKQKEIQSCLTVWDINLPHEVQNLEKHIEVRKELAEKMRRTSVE

mouse BCRP = assay: Efflux ratio of apparent permeability across basolateral to apical over apical to basolateral side in MDCK-II cells transfected with mouse BCRP incubated for 3 hrs by LC-MS/MS analysis; settings: dog
[30] = Toxicity in Wistar-Han rat assessed as effect on arterial pulse pressure at 60 mg/kg, po administered as single dose and measured upto 24 hrs by telemetric analysis; format: organism-based; settings: in vivo
hERG = hERG (Homo sapiens, UniProt Q12809); assay: Inhibition of hERG expressed in CHO cells at 10 uM by QPatch voltage clamp assay relative to control; format: toxicity, cell-based; settings: CHO cells expressing hERG
Sequence of hERG (Q12809 whole entry, the tested form may be a part): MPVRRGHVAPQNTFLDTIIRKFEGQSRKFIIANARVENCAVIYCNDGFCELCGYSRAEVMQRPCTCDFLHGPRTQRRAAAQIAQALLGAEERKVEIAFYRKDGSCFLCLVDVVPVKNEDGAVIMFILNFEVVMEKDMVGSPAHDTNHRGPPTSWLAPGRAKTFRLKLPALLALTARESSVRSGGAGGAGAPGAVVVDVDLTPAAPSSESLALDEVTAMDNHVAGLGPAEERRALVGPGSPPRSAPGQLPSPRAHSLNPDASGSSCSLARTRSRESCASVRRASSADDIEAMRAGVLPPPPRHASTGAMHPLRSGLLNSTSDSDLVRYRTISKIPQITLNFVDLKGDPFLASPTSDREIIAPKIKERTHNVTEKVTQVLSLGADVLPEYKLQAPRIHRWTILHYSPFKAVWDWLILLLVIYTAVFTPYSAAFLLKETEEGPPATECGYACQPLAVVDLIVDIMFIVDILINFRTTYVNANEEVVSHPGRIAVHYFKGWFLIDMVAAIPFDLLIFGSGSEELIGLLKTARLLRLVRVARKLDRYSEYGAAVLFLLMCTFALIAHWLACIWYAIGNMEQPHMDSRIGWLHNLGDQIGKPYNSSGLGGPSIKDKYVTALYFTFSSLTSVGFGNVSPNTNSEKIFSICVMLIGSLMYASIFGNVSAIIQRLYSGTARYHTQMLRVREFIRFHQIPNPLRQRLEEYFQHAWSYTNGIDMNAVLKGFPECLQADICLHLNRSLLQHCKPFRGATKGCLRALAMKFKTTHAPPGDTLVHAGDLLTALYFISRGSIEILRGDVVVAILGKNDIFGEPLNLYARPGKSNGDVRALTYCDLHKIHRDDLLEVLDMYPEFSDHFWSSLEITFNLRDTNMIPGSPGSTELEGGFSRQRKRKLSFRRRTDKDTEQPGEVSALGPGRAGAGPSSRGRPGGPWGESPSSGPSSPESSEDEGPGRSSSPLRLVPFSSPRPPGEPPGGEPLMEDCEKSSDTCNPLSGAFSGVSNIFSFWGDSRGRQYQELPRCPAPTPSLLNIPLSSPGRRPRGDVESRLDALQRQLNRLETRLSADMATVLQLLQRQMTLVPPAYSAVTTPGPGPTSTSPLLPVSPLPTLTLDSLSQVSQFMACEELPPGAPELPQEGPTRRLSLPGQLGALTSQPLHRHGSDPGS

[31] = molecular target: Leucine-rich repeat serine/threonine-protein kinase 2 (Homo sapiens, UniProt Q5S007, G2019S); assay: Inhibition of recombinant N-terminal GST-fused LRRK2 […] mutant (970 to 2527 residues) (unknown origin) using LRRKtide peptide as substrate assessed as inhibition of substrate phosphorylation preincubated with compound for 15 mins followed by substrate addition and measured after 90 mins in presence of ATP by TR-FRET assay
Sequence of Leucine-rich repeat serine/threonine-protein kinase 2 (Q5S007 whole entry G2019S, the tested form may be a part): as the sequence (Q5S007 whole entry) above, with G2019S counted along it

[32] = Mutagenicity in Salmonella typhimurium TA1535 at 30 to 5000 ug/plate incubated for 48 hrs in presence of Wistar-Han rat S9 fraction by Ames test; format: toxicity, subcellular; settings: salmonella enterica subsp. enterica serovar typhimurium, s9, 48 h
[33] = Total clearance in Beagle dog at 0.5 mg/kg, iv measured after 24 hrs by LC-MS/MS analysis; format: ADME, organism-based, Canis lupus familiaris; settings: in vivo
[34] = Toxicity in Wistar-Han rat assessed as NOAEL measured after 7 days; settings: in vivo, time 7 day
Brain = assay: In vivo inhibition of LRRK2 in Wistar-Han rat assessed as reduction in Ser935 phosphorylation in brain at 1 to 100 mg/kg, po measured after 2 hrs; format: functional; settings: dose 1-100 mg/kg
[35] = Oral bioavailability in Wistar-Han rat at 5 mg/kg measured after 24 hrs by LC-MS/MS analysis; format: ADME, organism-based; settings: in vivo

CL [2]: 736 mL/min/kg
clearance [4]: 22 mL/min/kg
AUC at 168 h [7]: 88 µM·h
fraction unbound at 4 h [12]: 0.131
CL [13]: 149 mL/min/kg
AUC at 168 h [16]: 63 µM·h
MRT [17]: 3.6 h
solubility kinetic at 24 h [20]: 182 µM (≈ 91.2 µg/mL)
efflux ratio at 3 h (rat Mdrl1 P-gp): 2.1
bioavailability [27]: 100%
AUC [28]: 6 µM·h
fIC50 [29]: 2.8 nM
efflux ratio at 3 h (mouse BCRP): 2.6
IC50 [31]: 0.4 nM
clearance [33]: 11 mL/min/kg
bioavailability [35]: 56%
SMILES: C[C@@]1(N2CCN(c3cc4cc(NC(=O)[C@H]5CC56CCOCC6)ncc4cc3Cl)CC2)COC[C@@H]1O
Activity [1]: Non-Toxic
Activity [3]: Toxic
Activity [5]: Toxic
Activity [6]: Non-Toxic
Activity [8]: Non-Toxic
Activity [9]: Non-Toxic
Activity [10]: Non-Toxic
Activity [11]: Non-Toxic
fIC50 [14]: 4.7 nM
Activity [15]: Non-Toxic
Activity [18]: Non-Toxic
Activity [19]: Non-Toxic
Activity [21]: Non-Toxic
Activity [22]: Non-Toxic
NOAEL at 24 h [23]: 60 mg/kg
Activity [24]: Non-Toxic
Activity [25]: Non-Toxic
Activity [26]: Toxic
Activity [30]: Non-Toxic
inhibition at 10 µM (hERG): 15%
Activity [32]: Non-Toxic
NOAEL at 168 h [34]: 225 mg/kg/day
fIC50 (Brain): 33 nM
